Measurements as given in patent publication US12522595B2, “Bicyclic ether O-glycoprotein-2-acetamido-2-deoxy-3-D-glucopyranosidase inhibitors” (BIOGEN MA INC., priority 2019, dated 2026).

Target: T1, Recombinant full length human OGA enzyme (Homo sapiens, UniProt O60502)
T1 construct: Recombinant full length human OGA enzyme was purchased from Origene; purchased Origene
T1 sequence (O60502 1-916): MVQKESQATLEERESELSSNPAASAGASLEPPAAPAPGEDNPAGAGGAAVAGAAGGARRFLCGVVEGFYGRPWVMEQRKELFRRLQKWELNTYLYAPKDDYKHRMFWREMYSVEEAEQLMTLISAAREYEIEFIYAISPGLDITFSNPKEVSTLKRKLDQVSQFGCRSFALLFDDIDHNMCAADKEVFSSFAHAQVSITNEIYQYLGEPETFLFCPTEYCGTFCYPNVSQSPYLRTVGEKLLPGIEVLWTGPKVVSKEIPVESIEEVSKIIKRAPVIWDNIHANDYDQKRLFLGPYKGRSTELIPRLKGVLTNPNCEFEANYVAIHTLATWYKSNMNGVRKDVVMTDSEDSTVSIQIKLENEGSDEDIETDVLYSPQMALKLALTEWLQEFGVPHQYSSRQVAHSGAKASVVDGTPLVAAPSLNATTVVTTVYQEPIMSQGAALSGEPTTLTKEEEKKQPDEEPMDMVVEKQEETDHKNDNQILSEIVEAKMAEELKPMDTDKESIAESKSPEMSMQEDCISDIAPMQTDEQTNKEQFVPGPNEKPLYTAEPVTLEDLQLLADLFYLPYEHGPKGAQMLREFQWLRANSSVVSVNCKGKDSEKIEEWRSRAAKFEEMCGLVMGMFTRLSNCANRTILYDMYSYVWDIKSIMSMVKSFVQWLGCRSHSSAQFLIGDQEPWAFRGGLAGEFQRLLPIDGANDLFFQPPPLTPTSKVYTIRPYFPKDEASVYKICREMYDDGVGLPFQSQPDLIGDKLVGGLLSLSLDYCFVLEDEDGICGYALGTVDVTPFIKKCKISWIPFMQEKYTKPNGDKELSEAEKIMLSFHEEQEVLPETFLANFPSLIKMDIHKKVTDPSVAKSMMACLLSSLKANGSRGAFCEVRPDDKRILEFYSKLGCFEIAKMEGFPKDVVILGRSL
Test: OGA enzyme inhibition biochemical assay
Settings: 1 nM OGA, 100 μM 4-MUGlcNAc (Km), pH 6.4, 90 minutes at room temperature, 10-point dose-response from 20 μM
Experimental: N-(5-(((2S,4R)-4-([1,2,4]triazolo[4,3-a]pyrazin-3-yloxy)-2-methylpyrrolidin-1-yl)methyl)-4-fluorothiazol-2-yl)acetamide: The title compound was prepared in an analogous manner as Example 172 from 3-bromo-[1,2,4]triazolo[4,3-a]pyrazine. LCMS (ESI): [M+H] 392. ^1H NMR (600 MHz, CHLOROFORM-d) δ 10.75 (br s, 1H), 9.04 (s, 1H), 9.03 (s, 1H), 7.24 (s, 1H), 4.99-5.06 (m, 1H), 4.01 (d, J=14.49 Hz, 1H), 3.64 (d, J=14.67 Hz, 1H), 3.40 (d, J=11.55 Hz, 1H), 2.75 (dd, J=5.78, 11.46 Hz, 1H), 2.61-2.72 (m, 2H), 2.32 (s, 4H), 1.84-1.92 (m, 1H), 1.30 (d, J=5.87 Hz, 4H). ^19F NMR (565 MHz, CHLOROFORM-d) 6-115.92 (br s, 1F). OGA Enzyme Inhibition Biochemical Assay
Recombinant full length human OGA enzyme was purchased from Origene. 4-MUGlCNAc substrate was purchased from Sigma. All other reagents were purchased from Sigma or Fisher. Assay buffer consists of the McIlvaine buffer system, pH 6.4 (0.2M Na2HPO4 mixed with 0.1M citric acid) and 0.01% BSA. Reactions consist of 1 nM OGA, 100 μM 4-MUGlcNAc (Km), and compound in a final volume of 10 μl. Reactions were incubated for 90 minutes at room temperature and quenched with 40 μl of 3M glycine, pH 10 and read on a Perkin Elmer Envision plate reader (Ex: 355 nm/Em: 460 nm). Compounds were tested with a 10-point dose-response starting from 20 μM with a 4-fold dilution. Data, as presented in Table 1 below, was fit using GraphPad Prism using a 4-parameter fit with variable slope.

| IC50 | Compound |
| --- | --- |
| < 1 nM | CC(=O)Nc1ncc(CN2C[C@H](Oc3cc4nc(C)cn4cn3)C[C@@H]2C)s1 [Example 40, N-(5-(((2S,4R)-2-methyl-4-((2-methylimidazo[1,2-c]pyrimidin-7-yl)oxy)pyrrolidin-1-yl)methyl)thiazol-2-yl)acetamide] |
| < 1 nM | CC(=O)Nc1ncc(CN2C[C@H](Oc3ccn4ccnc4c3)C[C@@H]2C)s1 [Example 42, N-(5-(((2S,4R)-4-(imidazo[1,2-a]pyridin-7-yloxy)-2-methylpyrrolidin-1-yl)methyl)thiazol-2-yl)acetamide] |
| < 1 nM | CC(=O)Nc1nc(F)c(CN2C[C@H](Oc3ccn4ccnc4c3)C[C@@H]2C)s1 [Example 43, N-(4-fluoro-5-(((2S,4R)-4-(imidazo[1,2-a]pyridin-7-yloxy)-2-methylpyrrolidin-1-yl)methyl)thiazol-2-yl)acetamide] |
| < 1 nM | CC(=O)Nc1ncc(CN2C[C@H](Oc3ccc4nn(C)cc4c3)C[C@@H]2C)s1 [Example 44, N-(5-(((2S,4R)-2-methyl-4-((2-methyl-2H-indazol-5-yl)oxy)pyrrolidin-1-yl)methyl)thiazol-2-yl)acetamide] |
| < 1 nM | CC(=O)Nc1ncc(CN2C[C@H](Oc3ccc4ncoc4c3)C[C@@H]2C)s1 [Example 45, N-(5-(((2S,4R)-4-(benzo[d]oxazol-6-yloxy)-2-methylpyrrolidin-1-yl)methyl)thiazol-2-yl)acetamide] |
| 1.1 nM | CC(=O)Nc1ncc(CN2C[C@H](Oc3ncnc4occc34)C[C@@H]2C)s1 [Example 46, N-(5-(((2S,4R)-4-(furo[2,3-d]pyrimidin-4-yloxy)-2-methylpyrrolidin-1-yl)methyl)thiazol-2-yl)acetamide] |
| < 1 nM | CC(=O)Nc1nc(F)c(CN2C[C@H](Oc3ccnc4ccoc34)C[C@@H]2C)s1 [Example 47, N-(4-fluoro-5-(((2S,4R)-4-(furo[3,2-b]pyridin-7-yloxy)-2-methylpyrrolidin-1-yl)methyl)thiazol-2-yl)acetamide] |
| < 1 nM | CC(=O)Nc1ncc(CN2C[C@H](Oc3ccnc4ccoc34)C[C@@H]2C)s1 [Example 48, N-(5-(((2S,4R)-4-(furo[3,2-b]pyridin-7-yloxy)-2-methylpyrrolidin-1-yl)methyl)thiazol-2-yl)acetamide] |
| < 1 nM | CC(=O)Nc1nc(F)c(CN2C[C@H](Oc3ccn4nccc4c3)C[C@@H]2C)s1 [Example 49, N-(4-fluoro-5-(((2S,4R)-2-methyl-4-(pyrazolo[1,5-a]pyridin-5-yloxy)pyrrolidin-1-yl)methyl)thiazol-2-yl)acetamide] |
| < 1 nM | CC(=O)Nc1nc(F)c(CN2C[C@H](Oc3ccc4nn(C)cc4c3)C[C@@H]2C)s1 [Example 50, N-(4-fluoro-5-(((2S,4R)-2-methyl-4-((2-methyl-2H-indazol-5-yl)oxy)pyrrolidin-1-yl)methyl)thiazol-2-yl)acetamide] |
| < 1 nM | CC(=O)Nc1nc(F)c(CN2C[C@H](Oc3ccc4cn(C)nc4c3)C[C@@H]2C)s1 [Example 51, N-(4-fluoro-5-(((2S,4R)-2-methyl-4-((2-methyl-2H-indazol-6-yl)oxy)pyrrolidin-1-yl)methyl)thiazol-2-yl)acetamide] |
| < 1 nM | CC(=O)Nc1ncc(CN2C[C@H](Oc3ccc4cn(C)nc4c3)C[C@@H]2C)s1 [Example 52, N-(5-(((2S,4R)-2-methyl-4-((2-methyl-2H-indazol-6-yl)oxy)pyrrolidin-1-yl)methyl)thiazol-2-yl)acetamide] |
| < 1 nM | CC(=O)Nc1ncc(CN2C[C@H](Oc3cn4nc(C)cc4cn3)C[C@@H]2C)s1 [Example 53, N-(5-(((2S,4R)-2-methyl-4-((2-methylpyrazolo[1,5-a]pyrazin-6-yl)oxy)pyrrolidin-1-yl)methyl)thiazol-2-yl)acetamide] |
| < 1 nM | CC(=O)Nc1nc(F)c(CN2C[C@H](Oc3ccc4ccnn4c3)C[C@@H]2C)s1 [Example 54, N-(4-fluoro-5-(((2S,4R)-2-methyl-4-(pyrazolo[1,5-a]pyridin-6-yloxy)pyrrolidin-1-yl)methyl)thiazol-2-yl)acetamide] |
| < 1 nM | CC(=O)Nc1ncc(CN2C[C@H](Oc3ccn4nccc4c3)C[C@@H]2C)s1 [Example 59, N-(5-(((2S,4R)-2-methyl-4-(pyrazolo[1,5-a]pyridin-5-yloxy)pyrrolidin-1-yl)methyl)thiazol-2-yl)acetamide] |
| < 1 nM | CC(=O)Nc1ncc(CN2C[C@H](Oc3ccn4nccc4n3)C[C@@H]2C)s1 [Example 61, N-(5-(((2S,4R)-2-methyl-4-(pyrazolo[1,5-a]pyrimidin-5-yloxy)pyrrolidin-1-yl)methyl)thiazol-2-yl)acetamide] |
| < 1 nM | CC(=O)Nc1nc(F)c(CN2C[C@H](Oc3ccn4nccc4n3)C[C@@H]2C)s1 [Example 62, N-(4-fluoro-5-(((2S,4R)-2-methyl-4-(pyrazolo[1,5-a]pyrimidin-5-yloxy)pyrrolidin-1-yl)methyl)thiazol-2-yl)acetamide] |
| < 1 nM | CC(=O)Nc1ncc(CN2C[C@H](Oc3cccc4nccn34)C[C@@H]2C)s1 [Example 63, N-(5-(((2S,4R)-4-(imidazo[1,2-a]pyridin-5-yloxy)-2-methylpyrrolidin-1-yl)methyl)thiazol-2-yl)acetamide] |
| < 1 nM | CC(=O)Nc1nc(F)c(CN2C[C@H](Oc3cccc4nccn34)C[C@@H]2C)s1 [Example 64, N-(4-fluoro-5-(((2S,4R)-4-(imidazo[1,2-a]pyridin-5-yloxy)-2-methylpyrrolidin-1-yl)methyl)thiazol-2-yl)acetamide] |
| < 1 nM | CC(=O)Nc1ncc(CN2C[C@H](Oc3ccc4occc4n3)C[C@@H]2C)s1 [Example 65, N-(5-(((2S,4R)-4-(furo[3,2-b]pyridin-5-yloxy)-2-methylpyrrolidin-1-yl)methyl)thiazol-2-yl)acetamide] |
| < 1 nM | CC(=O)Nc1nc(F)c(CN2C[C@H](Oc3ccc4occc4n3)C[C@@H]2C)s1 [Example 66, N-(4-fluoro-5-(((2S,4R)-4-(furo[3,2-b]pyridin-5-yloxy)-2-methylpyrrolidin-1-yl)methyl)thiazol-2-yl)acetamide] |
| 2.7 nM | CC(=O)Nc1ncc(CN2C[C@H](Oc3nccc4occc34)C[C@@H]2C)s1 [Example 69, N-(5-(((2S,4R)-4-(furo[3,2-c]pyridin-4-yloxy)-2-methylpyrrolidin-1-yl)methyl)thiazol-2-yl)acetamide] |
| 1.2 nM | CC(=O)Nc1nc(F)c(CN2C[C@H](Oc3nccc4occc34)C[C@@H]2C)s1 [Example 70, N-(4-fluoro-5-(((2S,4R)-4-(furo[3,2-c]pyridin-4-yloxy)-2-methylpyrrolidin-1-yl)methyl)thiazol-2-yl)acetamide] |
| < 1 nM | CC(=O)Nc1ncc(CN2C[C@H](Oc3ncnc4ccoc34)C[C@@H]2C)s1 [Example 71, N-(5-(((2S,4R)-4-(furo[3,2-d]pyrimidin-4-yloxy)-2-methylpyrrolidin-1-yl)methyl)thiazol-2-yl)acetamide] |
| < 1 nM | CC(=O)Nc1ncc(CN2C[C@H](Oc3ncnc4occc34)C[C@@H]2C)s1 [Example 73, N-(5-(((2S,4R)-4-(furo[2,3-d]pyrimidin-4-yloxy)-2-methylpyrrolidin-1-yl)methyl)thiazol-2-yl)acetamide] |
| < 1 nM | CC(=O)Nc1nc(F)c(CN2C[C@H](Oc3ncnc4occc34)C[C@@H]2C)s1 [Example 74, N-(4-fluoro-5-(((2S,4R)-4-(furo[2,3-d]pyrimidin-4-yloxy)-2-methylpyrrolidin-1-yl)methyl)thiazol-2-yl)acetamide] |
